Source: PubChem BioAssay (NCI)
Values joined by “and” are separate entries in the source; they are usually repeats but may differ in a detail not shown here. Equal values may be shown once.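 Interpolation was linear, between the two tested concentrations surrounding the appropriate level; five concentrations were tested over 48 hours in 96-well plates. GI50: concentration for 50% inhibition of growth. TGI: concentration producing complete growth inhibition.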

Tests used:
Assay in all cases: inhibition of tumour cell growth, NCI panel, 48 h
A549 NSCLC = test system: A549 NSCLC
HL-60(TB) leukemia = test system: HL-60(TB) leukemia
OVCAR-8 ovarian = test system: OVCAR-8 ovarian
HCC-2998 colon = test system: HCC-2998 colon
SK-MEL-28 melanoma = test system: SK-MEL-28 melanoma
KM12 colon = test system: KM12 colon
HCT-15 colon = test system: HCT-15 colon
SR leukemia = test system: SR leukemia
HCT-116 colon = test system: HCT-116 colon
LOX IMVI melanoma = test system: LOX IMVI melanoma

SMILES	TGI (A549 NSCLC)	TGI (HL-60(TB) leukemia)	TGI (OVCAR-8 ovarian)	TGI (HCC-2998 colon)	TGI (SK-MEL-28 melanoma)	TGI (KM12 colon)	TGI (HCT-15 colon)	GI50 (A549 NSCLC) [µM]	GI50 (HL-60(TB) leukemia) [µM]	GI50 (SR leukemia) [µM]	TGI (SR leukemia) [µM]	GI50 (OVCAR-8 ovarian) [µM]	GI50 (HCC-2998 colon) [µM]	GI50 (SK-MEL-28 melanoma) [µM]	GI50 (KM12 colon) [µM]	GI50 (HCT-15 colon) [µM]	GI50 (HCT-116 colon) [µM]	TGI (HCT-116 colon)	GI50 (LOX IMVI melanoma) [µM]	TGI (LOX IMVI melanoma) [µM]
Cc1nc2c(=O)n(C)c(=O)nc-2n(-c2ccc(Cl)cc2)c1C	> 100 µM	> 100 µM	> 100 µM	> 100 µM	> 100 µM	> 100 µM	> 100 µM													
C[As](C)SCC(COC(=O)c1ccccc1)OC(=O)c1ccccc1 (configuration not stated)	11.3 µM	0.1 µM	0.667 µM	0.232 µM	17.4 µM	7.92 µM	1.4 µM	1.45	0.0161	0.0241	0.183	0.225	0.104	0.504	0.384	0.0357	0.0292	0.434 µM		
COc1cccc2c1C(=N)c1c(O)c3c(c(O)c1C2=O)C[C@@](O)(C(C)=O)C[C@@H]3OC1CC(N)C(O)C(C)O1 (some centres not stated)	0.926 µM and 1.46 µM and 1.01 µM	0.287 µM and 0.192 µM	2.62 µM and 3.56 µM	2.48 µM and 3.14 µM and 0.541 µM	5.83 µM and 13.7 µM and 20.1 µM	2.55 µM and 1.94 µM and 10.4 µM	28 µM and 32.8 µM			0.0196								1.77 µM and 2.53 µM and 10.4 µM		
CNCc1ccc(C)c(NC(=O)c2ccc(Nc3nc(-c4ccccc4)c4ccccc4n3)cc2)c1	3.4 µM	4.33 µM	3.93 µM	3.58 µM		3.88 µM	3.35 µM	1.78	1.92	1.79	4.86	1.85	1.96		1.97	1.69	1.68	3.1 µM	1.67	3.13
N#Cc1c(-c2ccc(Cl)cc2)n([O-])c2ccccc2[n+]1=O	55.4 µM	11.4 µM	39 µM	26 µM	> 100 µM	28.7 µM	37.5 µM	22.2	3.1			9.68	13.3	44.8	14.3	13.7	3.03	11.1 µM	5.72	20.3
COCC(O)CN1C(N)=NC(O)C1O (configuration not stated)	> 100 µM	> 100 µM	> 100 µM	> 100 µM	> 100 µM	> 100 µM					> 100									> 100
NC(=O)NOCC1NC(=O)NC1=O (configuration not stated)	> 100 µM	> 100 µM	> 100 µM		> 100 µM	> 100 µM	> 100 µM				> 100							> 100 µM		> 100
O=C1[C@@H]2C3C=CC([C@H]4C(=O)N(CO)C(=O)[C@@H]34)[C@@H]2C(=O)N1CO	> 100 µM	49.3 µM	97.6 µM	> 100 µM	> 100 µM	> 100 µM	> 56.7 µM											> 57.4 µM		> 61
O=C1c2ccccc2CC1C1(O)C(=O)Nc2c(Cl)cc(Cl)cc21 (configuration not stated)	> 100 µM	96.4 µM	> 100 µM	> 100 µM	> 100 µM	> 100 µM	> 100 µM													> 100
NCCN.O=N[O-].O=N[O-].O=N[O-].O=N[O-].[Co+3].[K+]	> 100 µM	> 100 µM	> 100 µM		> 100 µM	> 100 µM	> 100 µM	> 100	> 100			> 100		> 100	> 100	> 100	> 100	> 100 µM	> 100	> 100
CCCCCC1C2C(=O)NC(=O)C1C(=O)NC2=O (configuration not stated)	> 100 µM	> 100 µM	> 100 µM	> 100 µM	> 100 µM	> 100 µM	> 100 µM													> 100
COc1cc2c(c(OC)c1OC)-c1c(c3ccc([N+](=O)[O-])cc3c(=O)n1CCCN=[N+]=[N-])C2=O	> 100 µM	> 100 µM	68.8 µM	> 100 µM	> 100 µM	> 100 µM	> 100 µM	0.36	> 100			13.6	> 100	> 100	> 100	44.6	14.2	38 µM	28.5	> 100
COc1ccc(C(=O)CC(Cl)=C(Cl)Cl)cc1	> 100 µM	95 µM	> 100 µM		37.2 µM	> 100 µM	97.4 µM	> 100	34.2			33.2		16	71.2	28	22.2	63.4 µM	19.2	43.4
CCCCCCCCCCCCOC1C(C(COC2OC(C(O)CO)C3OC(C)(C)OC23)OC(=O)Nc2ccc([N+](=O)[O-])cc2)OC2OC(C)(C)OC21 (configuration not stated)	10.7 µM	8.92 µM	14.5 µM	25.1 µM	22.7 µM	4.1 µM	11.1 µM	3.36	3.36			3.59	11.6	9.84	2	3.3	1.77	3.45 µM	2	3.79
Cc1cc(N2CCOCC2)nc(N(CCNc2ccnc3cc(Cl)ccc23)Cc2cccs2)n1	12 µM	3.83 µM	4.06 µM	5.11 µM	3.7 µM	5.34 µM	4.05 µM	3.08	1.95	1.47	3.94	1.96	2.39	1.76	2.23	1.78			1.72	3.18
COc1cc(OC)c(-c2oc3ccccc3c(=O)c2O)c(OC)c1	> 100 µM	> 24.1 µM	> 100 µM		> 100 µM	> 100 µM	> 100 µM				> 100							> 100 µM		> 100
